Source: ChEMBL document CHEMBL5113502, “Accommodation of ring C expanded deoxyvasicinone in the HDAC inhibitory pharmacophore culminates into a tractable anti-lung cancer agent and pH-responsive nanocarrier” (Eur J Med Chem, 2022)
The source made the active and inactive calls. The calls are words filed in the database; no cut-off is given here.

Key:
A549 [1] = assay: Cytotoxicity against human A549 cells assessed as cell viability after 48 hrs by MTT assay; format: functional, cell-based; conditions: A549, 48 h
HOP-62 = assay: Cytotoxicity against human HOP-62 cells assessed as cell viability after 48 hrs by MTT assay; format: functional, cell-based; conditions: HOP-62, 48 h
A549 [2] = assay: Inhibition of colony formation in human A549 cells measured after 24 hrs; format: functional, cell-based; conditions: dose 0.1-1 µM, DDE = dose-dependent effect
A549 [3] = assay: Induction of cell cycle arrest in human A549 cells assessed as accumulation at G0/G1 phase at 0.5 times IC50 after 48 hrs by flow cytometry; format: functional, cell-based
A549 [4] = assay: Induction of cell cycle arrest in human A549 cells assessed as accumulation at SubG1 phase at IC50 after 48 hrs by flow cytometry; format: functional, cell-based
A549 [5] = assay: Induction of apoptosis in human A549 cells assessed as […] deformation at 0.1 to 1 uM after 24 hrs by fluorescence microscopic analysis; format: functional, cell-based; conditions: dose 0.1-1 µM
A549 [6] = assay: Induction of apoptosis in human A549 cells assessed as apoptotic bodies formation after 24 hrs by fluorescence microscopic analysis; format: functional, cell-based; conditions: dose 0.1-1 µM, DDE = dose-dependent effect
Histone deacetylase 3 = Histone deacetylase 3 (Homo sapiens, UniProt O15379); assay: Inhibition of HDAC3 (unknown origin) by colorimetric method
Chain of Histone deacetylase 3 (O15379 whole entry): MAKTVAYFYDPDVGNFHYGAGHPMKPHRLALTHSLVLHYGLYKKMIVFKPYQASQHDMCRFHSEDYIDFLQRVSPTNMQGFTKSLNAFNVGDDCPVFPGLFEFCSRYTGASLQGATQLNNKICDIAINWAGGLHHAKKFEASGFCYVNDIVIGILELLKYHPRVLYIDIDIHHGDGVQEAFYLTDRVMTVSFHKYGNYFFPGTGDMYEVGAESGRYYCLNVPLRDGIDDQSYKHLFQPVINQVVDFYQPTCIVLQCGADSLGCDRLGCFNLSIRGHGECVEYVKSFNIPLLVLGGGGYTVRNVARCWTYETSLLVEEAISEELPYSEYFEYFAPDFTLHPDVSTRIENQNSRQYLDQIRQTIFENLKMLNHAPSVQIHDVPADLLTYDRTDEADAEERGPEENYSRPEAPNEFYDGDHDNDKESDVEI

Histone deacetylase 5 = Histone deacetylase 5 (Homo sapiens, UniProt Q9UQL6); assay: Inhibition of HDAC5 (unknown origin) by colorimetric method
Chain of Histone deacetylase 5 (Q9UQL6 whole entry): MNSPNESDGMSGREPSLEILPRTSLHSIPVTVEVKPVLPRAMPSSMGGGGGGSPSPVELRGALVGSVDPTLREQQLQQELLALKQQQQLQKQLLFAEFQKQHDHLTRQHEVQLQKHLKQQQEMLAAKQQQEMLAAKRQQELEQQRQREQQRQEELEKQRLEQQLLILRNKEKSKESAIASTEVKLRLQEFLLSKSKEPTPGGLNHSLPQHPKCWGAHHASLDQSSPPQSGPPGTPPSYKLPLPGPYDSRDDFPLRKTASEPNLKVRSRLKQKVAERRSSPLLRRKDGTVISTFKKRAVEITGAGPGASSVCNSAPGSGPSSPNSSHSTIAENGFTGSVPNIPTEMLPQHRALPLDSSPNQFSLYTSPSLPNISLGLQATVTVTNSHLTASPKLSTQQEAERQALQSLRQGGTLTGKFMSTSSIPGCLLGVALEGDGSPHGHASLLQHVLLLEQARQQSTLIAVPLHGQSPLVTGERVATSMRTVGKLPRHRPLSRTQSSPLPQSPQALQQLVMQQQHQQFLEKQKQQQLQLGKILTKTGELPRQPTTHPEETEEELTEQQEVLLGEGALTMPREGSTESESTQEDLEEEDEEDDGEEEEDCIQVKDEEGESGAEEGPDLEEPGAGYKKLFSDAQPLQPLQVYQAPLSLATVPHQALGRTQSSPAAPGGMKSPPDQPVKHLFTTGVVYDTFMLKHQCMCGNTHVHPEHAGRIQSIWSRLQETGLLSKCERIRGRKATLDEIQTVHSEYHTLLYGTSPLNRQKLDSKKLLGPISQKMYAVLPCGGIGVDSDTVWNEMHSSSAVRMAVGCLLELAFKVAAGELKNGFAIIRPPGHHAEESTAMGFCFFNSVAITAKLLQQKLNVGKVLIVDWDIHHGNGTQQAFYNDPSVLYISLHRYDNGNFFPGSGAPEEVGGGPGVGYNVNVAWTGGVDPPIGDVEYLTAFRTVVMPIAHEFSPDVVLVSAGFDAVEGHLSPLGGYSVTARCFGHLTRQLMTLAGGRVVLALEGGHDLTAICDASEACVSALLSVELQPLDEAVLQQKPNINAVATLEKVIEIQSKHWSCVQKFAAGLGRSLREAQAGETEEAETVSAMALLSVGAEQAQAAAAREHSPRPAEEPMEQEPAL

[7] = biological target: T1, Protein deacetylase HDAC6 (Homo sapiens, UniProt Q9UBN7); assay: Inhibition of HDAC6 (unknown origin) by colorimetric method
T1 sequence (Q9UBN7 whole entry): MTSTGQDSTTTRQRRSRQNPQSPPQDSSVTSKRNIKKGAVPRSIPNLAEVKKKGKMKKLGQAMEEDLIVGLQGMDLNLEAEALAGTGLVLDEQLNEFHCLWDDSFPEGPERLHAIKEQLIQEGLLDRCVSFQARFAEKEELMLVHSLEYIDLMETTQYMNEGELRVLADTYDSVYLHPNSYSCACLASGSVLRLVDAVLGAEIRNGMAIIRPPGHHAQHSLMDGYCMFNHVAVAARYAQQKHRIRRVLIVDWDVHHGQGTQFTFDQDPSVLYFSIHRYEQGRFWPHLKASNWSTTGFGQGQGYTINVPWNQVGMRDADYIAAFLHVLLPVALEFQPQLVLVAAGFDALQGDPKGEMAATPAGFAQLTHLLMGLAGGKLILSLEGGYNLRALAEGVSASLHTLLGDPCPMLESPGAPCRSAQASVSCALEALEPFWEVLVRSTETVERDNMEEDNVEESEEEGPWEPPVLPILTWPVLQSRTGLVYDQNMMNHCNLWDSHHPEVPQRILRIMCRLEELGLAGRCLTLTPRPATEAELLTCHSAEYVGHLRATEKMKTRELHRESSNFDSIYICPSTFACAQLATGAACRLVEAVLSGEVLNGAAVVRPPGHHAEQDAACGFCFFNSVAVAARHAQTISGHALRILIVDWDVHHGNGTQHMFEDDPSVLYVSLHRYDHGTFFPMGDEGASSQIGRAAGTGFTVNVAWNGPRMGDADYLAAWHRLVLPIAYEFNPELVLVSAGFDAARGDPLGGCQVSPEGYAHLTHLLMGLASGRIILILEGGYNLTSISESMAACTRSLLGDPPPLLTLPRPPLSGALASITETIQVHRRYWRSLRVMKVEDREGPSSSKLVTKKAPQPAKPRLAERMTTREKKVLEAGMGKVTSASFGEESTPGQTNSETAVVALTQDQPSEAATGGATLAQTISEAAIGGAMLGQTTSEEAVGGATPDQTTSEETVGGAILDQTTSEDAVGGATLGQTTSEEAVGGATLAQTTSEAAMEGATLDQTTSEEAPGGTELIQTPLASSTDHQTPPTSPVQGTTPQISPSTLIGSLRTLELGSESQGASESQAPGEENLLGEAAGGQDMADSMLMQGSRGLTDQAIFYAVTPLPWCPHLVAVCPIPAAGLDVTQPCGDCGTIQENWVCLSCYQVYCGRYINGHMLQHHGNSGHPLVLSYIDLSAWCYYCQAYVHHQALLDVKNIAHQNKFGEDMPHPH

Homo sapiens [8] = species on record: Homo sapiens; assay: Selectivity index, ratio of IC50 for HDAC 2 (unknown origin) to IC50 for HDAC 6 (unknown origin)
Homo sapiens [9] = species on record: Homo sapiens; assay: Selectivity index, ratio of IC50 for HDAC7 (unknown origin) to IC50 for HDAC 6 (unknown origin)
Homo sapiens [10] = species on record: Homo sapiens; assay: Selectivity index, ratio of IC50 for HDAC9 (unknown origin) to IC50 for HDAC 6 (unknown origin)
Homo sapiens [11] = species on record: Homo sapiens; assay: Selectivity index, ratio of IC50 for HDAC 2 (unknown origin) to IC50 for HDAC 3 (unknown origin)
Homo sapiens [12] = species on record: Homo sapiens; assay: Selectivity index, ratio of IC50 for HDAC 5 (unknown origin) to IC50 for HDAC 3 (unknown origin)
Homo sapiens [13] = species on record: Homo sapiens; assay: Selectivity index, ratio of IC50 for HDAC6 (unknown origin) to IC50 for HDAC 3 (unknown origin)
Homo sapiens [14] = species on record: Homo sapiens; assay: Selectivity index, ratio of IC50 for HDAC 9 (unknown origin) to IC50 for HDAC 3 (unknown origin)
Homo sapiens [15] = species on record: Homo sapiens; assay: Selectivity index, ratio of IC50 for HDAC 4 (unknown origin) to IC50 for HDAC 1 (unknown origin)
Homo sapiens [16] = species on record: Homo sapiens; assay: Selectivity index, ratio of IC50 for HDAC9 (unknown origin) to IC50 for HDAC 1 (unknown origin)
A549 [17] = assay: Downregulation of HDAC3 expression in human A549 cells at 0.1 to 1 uM after 24 hrs by Western blot analysis; format: functional, cell-based; conditions: dose 0.1-1 µM
A549 [18] = assay: Downregulation of HDAC6 expression in human A549 cells at 0.1 to 1 uM after 24 hrs by Western blot analysis; format: functional, cell-based; conditions: dose 0.1-1 µM

- IC50 (Histone deacetylase 3): 0.0685 µM
- IC50 (Histone deacetylase 5): 0.617 µM
- IC50 [7]: 0.0129 µM
- Ratio IC50 (Homo sapiens [8]): 97.7
- Ratio IC50 (Homo sapiens [9]): 316
- Ratio IC50 (Homo sapiens [10]): 335
- Ratio IC50 (Homo sapiens [11]): 18.4
- Ratio IC50 (Homo sapiens [12]): 9.01
- Ratio IC50 (Homo sapiens [13]): 0.188
- Ratio IC50 (Homo sapiens [14]): 63.1
- Ratio IC50 (Homo sapiens [15]): 32.7
- Ratio IC50 (Homo sapiens [16]): 86.6
SMILES: O=C(/C=C/c1ccc(CNc2ccc3nc4n(c(=O)c3c2)CCCCC4)cc1)NO
- IC50 (A549 [1]): 0.855 µM
- IC50 (HOP-62): 0.9 µM
- inhibition (A549 [2]): Dde
- Activity (A549 [3]): Active
- Activity (A549 [4]): Active
- Activity (A549 [5]): Active
- Activity (A549 [6]): Dde
- inhibition (A549 [17]): Active
- inhibition (A549 [18]): Active
